From patent US8575119B2, “2′-chloroacetylenyl substituted nucleoside derivatives” (Enanta Pharmaceuticals, Inc., priority 2011, dated 2013)

How the values were obtained:
HCV 1a genotype replicon = assay: HCV replicon assay, qRT-PCR, genotype 1a (Huh-1a7 replicon cell line); type: cell-based, HCV (strain H77; settings: Hepatitis C virus; Genotype-1a replicon, HCV RNA by qRT-PCR normalized to GAPDH RNA
Source text: (§1) HCV replicon cell lines (kindly provided by R. Bartenschlager) isolated from colonies as described by Lohman et al. (Lohman et al. (1999) Science 285: 110-113, expressly incorporated by reference in its entirety) and used for all experiments. One of the HCV replicon cell lines (strain Conl, genotype 1b) has the nucleic acid sequence set forth in EMBL Accession No.: AJ242651, the coding sequence of which is from nucleotides 1801 to 8406. Another replicon cell line (strain H77, genotype 1a) was constructed as described by Yi et. al. (Yi et. al. (2004) Journal of Virology 78(15):7904-15). The coding sequences of the published HCV replicons were synthesized and subsequently assembled in plasmids using standard molecular biology techniques.
(§2) One replicon cell line (“SGR 11-7”) stably expresses HCV replicon RNA, genotype 1b, which consists of (i) the HCV 5′UTR fused to the first 12 amino acids of the capsid protein, (ii) the neomycin phosphotransferase gene (neo), (iii) the IRES from encephalomyocarditis virus (EMCV) and (iv) HCV […] to NS5B genes and the HCV 3′UTR. Another replicon cell line (“Huh-1a7”) described by Yi et. al. (Yi et. al. (2004) Journal of Virology 78(15):7904-15, expressly incorporated by reference in its entirety) stably expresses HCV replicon RNA, genotype 1a, which consists of (i) the HCV 5′UTR fused to the first 12 amino acids of the capsid protein, (ii) the HIV tat protein, (iii) the neomycin phosphotransferase gene (neo), (iv) the IRES from encephalomyocarditis virus (EMCV) and (vi) HCV NS3 to NS5B genes that harbor cell culture adaptive mutations (Q1067R, K1691R, S2204I) and the HCV 3′UTR.
(§3) These cell lines are maintained at 37° C., 5% CO2, 100% relative humidity in DMEM (Cat#11965-084, Invitrogen), with 10% fetal calf serum (“FCS”, Invitrogen), 1% non-essential amino acids (Invitrogen), 1% of Glutamax (Invitrogen), 1% of 100× penicillin/streptomycin (Cat#15140-122, Invitrogen) and Geneticin (Cat#10131-027, Invitrogen) at 0.75 mg/ml or 0.25 mg/ml for 11-7 and Huh-1a7 cells, respectively.
(§4) EC50 values of single agent compounds were determined by HCV RNA detection using quantitative RT-PCR, according to the manufacturer's instructions, with a TAQMAN® One-Step RT-PCR Master Mix Reagents Kit (Cat#AB 4309169, Applied Biosystems) on an ABI Model 7500 thermocycler. EC50 values of combinations are similarly determined by HCV RNA detection using quantitative RT-PCR. The TAQMAN primers to use for detecting and quantifying HCV RNA obtained from Integrated DNA Technologies. HCV RNA is normalized to GAPDH RNA levels in drug-treated cells, which is detected and quantified using the Human GAPDH Endogenous Control Mix (Applied Biosystems, AB 4310884E). Total cellular RNA is purified from 96-well plates using the RNAqueous 96 kit (Ambion, Cat#AM1812). Chemical agent cytotoxicity is evaluated using an MTS assay according to the manufacturer's directions (Promega).
(§5) The compounds of the present invention can be effective against the HCV 1a and 1b genotypes. It should also be understood that the compounds of the present invention can inhibit multiple genotypes of HCV. In one embodiment, compounds of the present invention are active against the 1a, 1b, 2a, 2b, 3a, 4a, and 5a genotypes. […] EC50 ranges against HCV 1a or 1b are as follows: A>1 μM; B 0.1-1 μM; C<0.1 μM.

HCV 1b genotype replicon = assay: HCV replicon assay, qRT-PCR, genotype 1b (SGR 11-7 replicon cell line); type: cell-based, HCV (strain Conl; settings: Hepatitis C virus; Genotype-1b replicon, HCV RNA by qRT-PCR normalized to GAPDH RNA
Source text: as §1, §2, §3, §4, §5

Compound | EC50 (HCV 1a genotype replicon) [µM] | EC50 (HCV 1b genotype replicon) [µM]
O=c1ccn([C@@H]2O[C@H](CO)C(O)C2(O)C#CCl)c(=O)[nH]1 (some centres unmarked) [Example 1] | > 1 | > 1
COC(=O)[C@H](C)NP(=O)(OC[C@H]1O[C@@H](n2ccc(=O)[nH]c2=O)[C@@](O)(C#CCl)C1O)Oc1cccc2ccccc12 (some centres unmarked) [Example 2] | 0.1 to 1 | 0.1 to 1
C[C@H](N[P@@](=O)(OC[C@H]1O[C@@H](n2ccc(=O)[nH]c2=O)[C@@](O)(C#CCl)C1O)Oc1cccc2ccccc12)C(=O)OCC(C)(C)C (some centres unmarked) [Example 3] | 0.1 to 1 | 0.1 to 1
C[C@H](N[P@](=O)(OC[C@H]1O[C@@H](n2ccc(=O)[nH]c2=O)[C@@](O)(C#CCl)C1O)Oc1cccc2ccccc12)C(=O)OCC(C)(C)C (some centres unmarked) [Example 4] | < 0.1 | < 0.1
CCCCOC(=O)[C@H](C)NP(=O)(OC[C@H]1O[C@@H](n2ccc(=O)[nH]c2=O)[C@@](O)(C#CCl)C1O)Oc1cccc2ccccc12 (some centres unmarked) [Example 5] | 0.1 to 1 | 0.1 to 1
C[C@H](NP(=O)(OC[C@H]1O[C@@H](n2ccc(=O)[nH]c2=O)[C@@](O)(C#CCl)C1O)Oc1cccc2ccccc12)C(=O)OCc1ccccc1 (some centres unmarked) [Example 6] | 0.1 to 1 | 0.1 to 1
CCCCCOC(=O)[C@H](C)NP(=O)(OC[C@H]1O[C@@H](n2ccc(=O)[nH]c2=O)[C@@](O)(C#CCl)C1O)Oc1cccc2ccccc12 (some centres unmarked) [Example 7] | 0.1 to 1 | 0.1 to 1
CC(C)OC(=O)[C@H](C)NP(=O)(OC[C@H]1O[C@@H](n2ccc(=O)[nH]c2=O)[C@@](O)(C#CCl)C1O)Oc1cccc2ccccc12 (some centres unmarked) [Example 8] | 0.1 to 1 | > 1
C[C@H](NP(=O)(OC[C@H]1O[C@@H](n2ccc(=O)[nH]c2=O)[C@@](O)(C#CCl)C1O)Oc1cccc2ccccc12)C(=O)OC1CCCC1 (some centres unmarked) [Example 9] | 0.1 to 1 | 0.1 to 1
C[C@H](NP(=O)(OC[C@H]1O[C@@H](n2ccc(=O)[nH]c2=O)C(O)(C#CCl)C1O)Oc1cccc2ccccc12)C(=O)OC1CCCCC1 (some centres unmarked) [Example 10] | > 1 | > 1
